Measurements taken from the NIST ThermoML archive (doi:10.1016/j.jct.2010.02.010).
Numbers after ± are expanded uncertainties.

Conditions: for mass density: 101.33 kPa, Buoyancy - hydrostatic balance; for mass density / surface tension liquid-gas: Liquid; for surface tension liquid-gas: Maximal bubble pressure

CCCC[n+]1ccccc1.[O]=[Re](=[O])(=[O])[O-] [1-butylpyridinium perrhenate]
mass density (293.15 K): 1910.1 ± 8.1 kg/m3
surface tension liquid-gas (293.15 K): 41.6 ± 0.6 mN/m
mass density (298.15 K): 1902.5 ± 8.1 kg/m3
surface tension liquid-gas (298.15 K): 41.2 ± 0.6 mN/m
mass density (303.15 K): 1894.9 ± 8 kg/m3
surface tension liquid-gas (303.15 K): 40.7 ± 0.6 mN/m
mass density (308.15 K): 1886.9 ± 8 kg/m3
surface tension liquid-gas (308.15 K): 40.5 ± 0.6 mN/m
mass density (313.15 K): 1881.8 ± 8 kg/m3
surface tension liquid-gas (313.15 K): 40 ± 0.6 mN/m
mass density (318.15 K): 1877.6 ± 7.9 kg/m3
surface tension liquid-gas (318.15 K): 39.7 ± 0.6 mN/m
mass density (323.15 K): 1869.2 ± 7.9 kg/m3
surface tension liquid-gas (323.15 K): 39.4 ± 0.6 mN/m
mass density (328.15 K): 1862.7 ± 7.9 kg/m3
surface tension liquid-gas (328.15 K): 39 ± 0.6 mN/m
mass density (333.15 K): 1856.9 ± 7.9 kg/m3
surface tension liquid-gas (333.15 K): 38.6 ± 0.6 mN/m
mass density (338.15 K): 1853.2 ± 7.8 kg/m3
surface tension liquid-gas (338.15 K): 38.3 ± 0.6 mN/m
mass density (343.15 K): 1846.8 ± 7.8 kg/m3
surface tension liquid-gas (343.15 K): 38.2 ± 0.6 mN/m
Glass transition temperature (Glass, DTA): -66 ± 1 °C
